[ ]: non-standard residue; d: D form. Hyp = O=C(O)[C@@H]1C[C@@H](O)CN1
Tests used:
[1] = system: calcium-induced arrythmias; assay: Calcium-induced arrhythmia model in mice (time to 2nd degree AV-block); type: in vivo; conditions: for CaCl2 mice In vivo, % / CaCl2 mice Score: calcium chloride induced arrythmia model; for CaCl2 mice Score: no key for the score
Description: The antiarrhythmic effects of compounds of this invention were tested in an in vivo model of calcium-induced arrythmias according to the model of Lynch et al. ^[37]. […]. Commercial solutions of hypnorm and midazolam were diluted 1:1 in distilled water and one part diluted Hypnorm® is mixed with one part diluted midazolam.
The anaesthesia was induced by s.c. administration in a dose of […]. An i.v. cannula was inserted into the tail vein. The lead II ECG signal was recorded continuously by positioning of a stainless steel ECG electrodes on the right forelimb and on the left hind limb. The ground electrode was placed on the right hind limb. The signal was amplified (x 5.000-10.000) and filtered (0.1-150 Hz) via a Hugo Sachs Electronic model 689 ECG module. The analogue signal was digitised via a 12 bit data acquisition board (Data Translation model DT321) and sampled at 1000 Hz using the Notocord HEM 3.1 software for Windows NT. After a 10-min equilibration period, the test sample of drug was injected into the tail vein. Mice pre-treated with vehicle were tested as a measure of the control level in untreated animals. The injection volume was 100 µl in all experiments. Infusion of CaCl2 (30 mg/ml, 0.1 ml/min ≈ 100 mg/kg/min (calciumchlorid-2-hydrat, Riedel-de Haën, Germany)) was started 3 min after i.v. administration of drug or vehicle. The time lag to onset of 2nd degree AV-block was determined as the time from the start of CaCl2 infusion until the first arrhythmic event occured. An event of 2nd degree AV-block was defined as intermittent failure of the AV conduction characterised by a P-wave without the concomitant QRS complex.
Responses were expressed relative to the time until 2nd degree AV-block occurred in vehicle treated mice.

[2] = In vitro plasma and serum stability, rabbit; type: in vitro ADME; conditions: 37°C
Description: (§1) The stability of peptides is analysed in serum and plasma. The peptides are incubated at 37°C in plasma or serum and samples taken at approx. 9 regular intervals between t=0 and t=156 min are analysed by HPLC.
This is done by subsequent injections of the drug, plasma, and a co-injection with the drug and the plasma, followed by optimisation of the LC method parameters until a satisfactory separation is obtained. Three parallel experiments are performed for each plasma type.[…] at t = 0 and incubated at 37°C (drug-plasma mixture conc. 0.1 mg/ml). Samples of 100 ml of the drug-plasma mixture are removed at appropriate intervals and the degradation stopped by precipitation of the sample with 10 ml MeCN:TFA 50:50 v/v. A control plasma sample without the drug treated in the same manner is also taken. The plasma samples are centrifuged for 15 min. at 12,000 rpm (Eppendorf centrifuge) at ambient temperature. The resulting supernatant solution is transferred to 300 ml HP autosamler vials and analyzed by HPLC. The samples are analyzed in the following order: blank, the peptide at 0.1 mg/mL, the plasma without the peptide, the three parallel samples for t = 0, the three parallel samples for t = 5 min. the three parallel samples for t = 10 min. etc. […]

[3] = In vitro plasma and serum stability, human; type: in vitro ADME; conditions: for T1/2 PLASMA, HEPARIN HUMAN: 37°C
Description: as §1
This is done by subsequent injections of the drug, plasma, and a co-injection with the drug and the plasma, followed by optimisation of the LC method parameters until a satisfactory separation is obtained. Three parallel experiments are performed for each plasma type.100 ml of peptide is mixed with 900 ml plasma at t = 0 and incubated at 37°C (drug-plasma mixture conc. 0.1 mg/ml). Samples of 100 ml of the drug-plasma mixture are removed at appropriate intervals and the degradation stopped by precipitation of the sample with 10 ml MeCN:TFA 50:50 v/v. A control plasma sample without the drug treated in the same manner is also taken. The plasma samples are centrifuged for 15 min. at 12,000 rpm (Eppendorf centrifuge) at ambient temperature. The resulting supernatant solution is transferred to 300 ml HP autosamler vials and analyzed by HPLC. The samples are analyzed in the following order: blank, the peptide at 0.1 mg/mL, the plasma without the peptide, the three parallel samples for t = 0, the three parallel samples for t = 5 min. the three parallel samples for t = 10 min. etc. And finally the three parallel samples for t = 0 are repeated to make sure that there have been no degradation or other failure during the analyses. The sample concentrations (peak height in mAU) are plotted vs. time and fitted to a function describing a mono exponential decay (Excel). […] Table 7. Results of in vitro stability test in plasma and serum, T1/2 in min and hrs

[4] = target: murine heart tissue preparations; assay: Displacement of [125I]AAP10 from murine heart tissue preparations; type: binding, mice; conditions: displacement of 0.8 nM [125I]AAP10, filtrate; read-out: Filtrate IC50
Description: Hearts are excised from mice (Balb/cJ, 20 g), rinsed twice in ice-cold (0°C) 0.32 M sucrose and homogenized on ice in 10 volumes of sucrose with an Ultra Turrax homogeniser (1000 rpm) for 2 minutes. The homogenate is centrifuged at 1000 gmea" for 10 minutes at 4° C and the supernatant collected and filtrated through 4 layers of gauze. The filtrate is then centrifuged at 50,000 gmean for 45 min at 4° C and the pellet resuspended in 10 volorg. wet weight ice-cold distilled water and incubated for 60 min at 0° C and re-centrifuged at 50,000 gmean at 45 min at 4° C. The resulting pellet is resuspended in 2 vol org. wet weight of PBS (Phosphate Buffered Saline) and stored at - 80° C until use.

CHO cells = assay: In situ binding of [125I]AAP10 on intact CHO cells; conditions: overnight at 4° C
Description: CHO cells are seeded in 24-multi well dishes in a density of 7,900 cells/cm^2 (∼ 15,000 cells/well) and grown for 3 Days In Vitro (DIV) in 1 ml/well of F-12K Nutrient Mixture supplemented with 10% Foetal Calf Serum (FCS) and 1000 units penicillin/1000 µg streptomycin (pen/strep) in an atmosphere of 5% CO2 and 100% humidity at 37° C. The cell density has at that time increased to 295,000 cells/cm^2 (152 pgprot/cell ∼ 85 µgprot/well).
On the day of analysis cells are removed from the incubator and each well is washed twice with, depending on the experiment, either 2 ml pre-warmed (37 °C) or ice-cold (0 °C) D-PBS to remove serum. It is important to keep the period to a minimum during which cells are left without physiological solutions to avoid that they dry out during washing procedures. The cold washed cells are used directly for binding assays while the warm washed cells are used for experiments with glucose and oxygen deprivation.
The in situ binding is performed by a modified protocol based on the description by Koenig. […] Cells incubate overnight at 4° C to reach equilibrium. Each well, one at the time, is then rinsed rapidly with 2 x 1 ml D-PBS and left to dry.
0.25 ml of 0.5 % Triton-X-100 (v/v) is added to each well and cells left for at least 1 h to solubilize. The extract is transferred to counting vials, the wells rinsed with 0.25 ml water and the rinse extract added to the corresponding vials. The vials are counted in a γ-counter. Table 3. In situ binding, IC50 (nM).

[5] = system: cAMP formation in CHO cells; assay: Inhibition of forskoline stimulated cAMP formation in CHO cells; type: cell-based; conditions: 10 µM forskoline, 20 min, cells pre-treated with glucose and oxygen deprivation
Description: CHO cells are seeded in 96-well microtiter plates in a density of 6,000 cells/cm^2 (∼ 2,000 cells/well) and grown for 4 days in vitro in 200 µl/well of growth media as described in the previous section.
On the day of analysis cells are removed from the incubator and washed twice with 200 µl pre-warmed (37°C) D-PBS (pH 7.2) to remove serum. Cells are incubated for 10 min in glucose free D-PBS and an N2-atmosphere as described in the previous section.
CHO cells are incubated at 37° C in D-PBS (pH 7.2) containing 6 mM glucose, 2.0 mM IBMX (phospodiesterase blocker), 10 µM forskoline (stimulates cAMP formation) and increasing concentrations of test peptide. The reaction is stopped after 20 min by addition of 20 µl 0.5 M HCl and left for at least 20 min at room temperature.
The content of cAMP is analysed by mixing 20 µl of the acid cell extract into FlashPlate™ wells (NEN assay kit SMP001) containing 180 µl [^12SI]cAMP tracer solution. FlashPlates™ are incubated overnight at 4° C and plate bound radioactivity counted in TopCount (Packard Instrument). Data are calculated as described in the previous section.

[6] = system: phosphoinositol turnover in rat primary cardiomyocytes; assay: Phosphoinositol turnover in primary cardiomyocyte cultures; type: cell-based; conditions: for EC50: enhancement of phospho-inositol turnover
Description: Neonatal Wistar rats (1-2 days old) are used. Hank's calcium- and magnesium-free balanced salt solution, buffered with 10 mM HEPES is used for washing during cell separation procedures. The hearts are excised, the ventricles isolated and the tissue cut into small pieces. The myocardial cells are isolated by stepwise enzymatic degradation with collagenase 0.05%, as described by ^[35]. After repeated rounds of centrifugation and washing, the precipitated cells are resuspended in culture medium M199 with Earle's salt, 10% NCS, penicillin (75 U/mL), and streptomycin (75 U/mL) and pre-plated in a Petri dish for 90 minutes. The non-adherent cells are collected in the culture medium and plated in multidishes at 2.5*10^5 cells/well. The cultures are kept in a water-saturated CO2-incubator at 37°C. The cardiomyocyte cultures are used for analyses after 6-7 days.
Cardiomyocyte cultures are incubated for 48 hours in culture medium containing 4 µCi/mL myo-[2-^3H]inositol to label the inositol phospholipids. On the day of analysis the medium is replaced by a buffer solution containing lithium and incubated at 37°C, as described by Meier et al. ^[36]. After at least five minutes this buffer is replaced by the same volume of buffer containing test compound and incubated for exactly 20 minutes. The reaction is stopped by rapid replacement of the buffer by ice cold 4%v/v perchloric acid (PCA) and incubation for at least 20 minutes at 0°C. The PCA-extract is neutralised and the [^3H]inosltol phosphates are separated by anion-exchange chromatography using Amprep™ columns containing 100 mg SAX Quaternary amine. The [^3H]inositol mono-phosphates are eluted and radioactivity in the fraction measured by liquid scintillation counting.
Before adding test substances to the cultures, the cells are depleted of glucose and oxygen by incubating them in a N2-atmosphere in glucose-free lithium-buffer for 10 minutes at 37°C. Control cells are incubated likewise only at normal atmospheric conditions and in a buffer containing glucose.

[7] = system: isolated perfused rabbit hearts; assay: Isolated perfused rabbit heart (Langendorff), APD90 dispersion during hypokalemic ischemia; conditions: 10^-10 mol/l

Row | Substance | CaCl2 mice In vivo, % [1] | CaCl2 mice Score [1] | T1/2 PLASMA, HEPARIN RABBIT [2] | T1/2 PLASMA, HEPARIN HUMAN [3] | Human plasma half life [3] | IC50 [4] | IC50 (CHO cells) | EC50 [5] | EC50 value relative to the EC50 value for Compound 2 ([6]; during metabolic stress induced by anoxia and glucose deprivation) | EC50 value relative to the EC50 value for Compound 2 ([6]; during normoxia) | EC50 ([6]; Glucose and oxygen deprivation) | EC50 ([6]; Normal conditions) | In vivo activity ([1]; maximal effect, increase in time until 2nd degree AV-block relative to vehicle, i.v.) | increase in APD90 dispersion during hypokalemic, acute myocardial ischemia [7]
1 | cyclo(GAG[Hyp]PYN) | 57 +/- 8% | 2 | 30 hrs ± 8% | 9 hrs ± 1% | 13 h |  |  |  |  |  |  |  |  | 
2 | cyclo(GAG[Hyp]PYQ) | 48 +/- 14% | 2 | 14 hrs ± 2% | 15 hrs ± 1% | 15 h |  |  |  |  |  |  |  |  | 
3 | H-GAG[Hyp]PY-NH2 [AAP10, reference compound] |  | 3 |  |  |  | 1.2 nM | 130 nM | 11 nM | 10 fold | 200 fold | 100 nM | 2000 nM | +++ (+++ refers to >60% increase in time until arrhythmia) | ineffective

Source: patent publication EP1370276B1, “INTERCELLULAR COMMUNICATION FACILITATING COMPOUNDS AND THEIR MEDICAL USE” (Zealand Pharma A/S, priority 2001, dated 2002)
